Measured values taken from ChEMBL document CHEMBL3991601, “The target landscape of clinical kinase drugs” (Science, 2017).
Active and inactive are the calls of the source. On the calls: in the data inactive means no Kd found up to 30 µM.

Key:
[1] = biological target: T1, Tyrosine-protein kinase Mer (Homo sapiens, UniProt Q12866)
T1 sequence (Q12866 whole entry): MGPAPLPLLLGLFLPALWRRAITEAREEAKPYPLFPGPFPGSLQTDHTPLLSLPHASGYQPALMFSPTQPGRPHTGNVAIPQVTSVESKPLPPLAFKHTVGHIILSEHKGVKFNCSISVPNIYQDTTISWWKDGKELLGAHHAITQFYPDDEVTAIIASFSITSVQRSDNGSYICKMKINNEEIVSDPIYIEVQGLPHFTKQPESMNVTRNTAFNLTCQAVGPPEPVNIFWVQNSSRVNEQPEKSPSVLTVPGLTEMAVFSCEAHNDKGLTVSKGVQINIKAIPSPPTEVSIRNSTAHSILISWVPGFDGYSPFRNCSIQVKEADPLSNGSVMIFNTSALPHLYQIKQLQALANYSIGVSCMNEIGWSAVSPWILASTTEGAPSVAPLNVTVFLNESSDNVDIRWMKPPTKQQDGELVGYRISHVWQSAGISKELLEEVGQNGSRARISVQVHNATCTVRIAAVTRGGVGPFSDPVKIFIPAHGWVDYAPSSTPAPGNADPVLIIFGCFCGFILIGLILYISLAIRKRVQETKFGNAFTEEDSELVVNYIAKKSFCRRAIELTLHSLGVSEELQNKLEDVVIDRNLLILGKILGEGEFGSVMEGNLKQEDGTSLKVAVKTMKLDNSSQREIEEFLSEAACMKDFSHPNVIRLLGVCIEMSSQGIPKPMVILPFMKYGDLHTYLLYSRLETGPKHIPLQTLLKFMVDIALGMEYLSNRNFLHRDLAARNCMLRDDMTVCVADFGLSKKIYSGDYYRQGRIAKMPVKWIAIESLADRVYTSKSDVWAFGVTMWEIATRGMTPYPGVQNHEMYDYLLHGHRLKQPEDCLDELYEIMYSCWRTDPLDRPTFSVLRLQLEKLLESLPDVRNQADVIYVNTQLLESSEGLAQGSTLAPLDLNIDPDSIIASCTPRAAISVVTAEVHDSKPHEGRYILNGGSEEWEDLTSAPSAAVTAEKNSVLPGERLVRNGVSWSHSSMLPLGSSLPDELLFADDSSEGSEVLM

UMP-CMP kinase = biological target: T2, UMP-CMP kinase (Homo sapiens, UniProt P30085)
T2 sequence (P30085 whole entry): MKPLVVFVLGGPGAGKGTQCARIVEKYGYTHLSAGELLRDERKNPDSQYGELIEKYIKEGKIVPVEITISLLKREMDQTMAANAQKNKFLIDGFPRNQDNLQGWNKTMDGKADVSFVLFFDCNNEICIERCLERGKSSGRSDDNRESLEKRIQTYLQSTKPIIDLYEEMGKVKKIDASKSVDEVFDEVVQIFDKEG

[2] = biological target: MAP kinase-activated protein kinase 3 (Homo sapiens, UniProt Q16644)
[3] = biological target: Serine/threonine-protein kinase pim-2 (Homo sapiens, UniProt Q9P1W9)
Misshapen-like kinase 1 = Misshapen-like kinase 1 (Homo sapiens, UniProt Q8N4C8)
[4] = biological target: T3, Protein kinase C zeta type (Homo sapiens, UniProt Q05513)
T3 sequence (Q05513 whole entry): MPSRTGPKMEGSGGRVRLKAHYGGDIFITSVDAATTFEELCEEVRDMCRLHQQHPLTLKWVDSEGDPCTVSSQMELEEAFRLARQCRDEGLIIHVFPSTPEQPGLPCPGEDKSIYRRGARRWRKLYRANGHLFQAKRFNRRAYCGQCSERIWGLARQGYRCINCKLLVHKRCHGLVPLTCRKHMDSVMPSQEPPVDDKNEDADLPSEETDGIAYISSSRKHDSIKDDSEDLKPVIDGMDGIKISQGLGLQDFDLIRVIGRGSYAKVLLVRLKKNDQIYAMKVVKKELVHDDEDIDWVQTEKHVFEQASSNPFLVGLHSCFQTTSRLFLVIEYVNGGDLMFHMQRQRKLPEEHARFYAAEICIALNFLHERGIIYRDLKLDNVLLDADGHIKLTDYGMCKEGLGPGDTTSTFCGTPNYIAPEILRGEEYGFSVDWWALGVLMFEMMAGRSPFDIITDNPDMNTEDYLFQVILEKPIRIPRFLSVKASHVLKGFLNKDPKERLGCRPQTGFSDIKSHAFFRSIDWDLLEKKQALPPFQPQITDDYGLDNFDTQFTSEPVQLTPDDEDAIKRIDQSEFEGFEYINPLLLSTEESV

[5] = biological target: Serine/threonine-protein kinase PAK 6 (Homo sapiens, UniProt Q9NQU5)
[6] = biological target: Uncharacterized aarF domain-containing protein kinase 5 (Homo sapiens, UniProt Q3MIX3)
[7] = biological target: Serine/threonine-protein kinase Nek7 (Homo sapiens, UniProt Q8TDX7)
[8] = biological target: Dual specificity testis-specific protein kinase 2 (Homo sapiens, UniProt Q96S53)
Dual specificity testis-specific protein kinase 2, sequence (Q96S53 whole entry): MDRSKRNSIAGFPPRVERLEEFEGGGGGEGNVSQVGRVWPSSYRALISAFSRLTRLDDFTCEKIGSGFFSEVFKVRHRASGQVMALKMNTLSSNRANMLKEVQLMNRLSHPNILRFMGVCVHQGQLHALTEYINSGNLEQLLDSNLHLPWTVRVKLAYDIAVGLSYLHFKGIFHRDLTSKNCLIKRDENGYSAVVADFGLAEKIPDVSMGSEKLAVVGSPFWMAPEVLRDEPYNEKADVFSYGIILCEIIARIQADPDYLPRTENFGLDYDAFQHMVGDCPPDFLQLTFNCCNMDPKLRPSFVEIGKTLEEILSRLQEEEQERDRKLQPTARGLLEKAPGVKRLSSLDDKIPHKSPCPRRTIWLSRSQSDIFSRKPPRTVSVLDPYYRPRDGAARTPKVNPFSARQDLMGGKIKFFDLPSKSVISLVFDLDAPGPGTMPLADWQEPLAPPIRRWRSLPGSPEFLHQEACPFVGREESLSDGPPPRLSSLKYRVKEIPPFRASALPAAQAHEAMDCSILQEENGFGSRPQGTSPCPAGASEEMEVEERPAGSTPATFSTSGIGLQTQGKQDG

Misshapen-like kinase 1, sequence (Q8N4C8 whole entry): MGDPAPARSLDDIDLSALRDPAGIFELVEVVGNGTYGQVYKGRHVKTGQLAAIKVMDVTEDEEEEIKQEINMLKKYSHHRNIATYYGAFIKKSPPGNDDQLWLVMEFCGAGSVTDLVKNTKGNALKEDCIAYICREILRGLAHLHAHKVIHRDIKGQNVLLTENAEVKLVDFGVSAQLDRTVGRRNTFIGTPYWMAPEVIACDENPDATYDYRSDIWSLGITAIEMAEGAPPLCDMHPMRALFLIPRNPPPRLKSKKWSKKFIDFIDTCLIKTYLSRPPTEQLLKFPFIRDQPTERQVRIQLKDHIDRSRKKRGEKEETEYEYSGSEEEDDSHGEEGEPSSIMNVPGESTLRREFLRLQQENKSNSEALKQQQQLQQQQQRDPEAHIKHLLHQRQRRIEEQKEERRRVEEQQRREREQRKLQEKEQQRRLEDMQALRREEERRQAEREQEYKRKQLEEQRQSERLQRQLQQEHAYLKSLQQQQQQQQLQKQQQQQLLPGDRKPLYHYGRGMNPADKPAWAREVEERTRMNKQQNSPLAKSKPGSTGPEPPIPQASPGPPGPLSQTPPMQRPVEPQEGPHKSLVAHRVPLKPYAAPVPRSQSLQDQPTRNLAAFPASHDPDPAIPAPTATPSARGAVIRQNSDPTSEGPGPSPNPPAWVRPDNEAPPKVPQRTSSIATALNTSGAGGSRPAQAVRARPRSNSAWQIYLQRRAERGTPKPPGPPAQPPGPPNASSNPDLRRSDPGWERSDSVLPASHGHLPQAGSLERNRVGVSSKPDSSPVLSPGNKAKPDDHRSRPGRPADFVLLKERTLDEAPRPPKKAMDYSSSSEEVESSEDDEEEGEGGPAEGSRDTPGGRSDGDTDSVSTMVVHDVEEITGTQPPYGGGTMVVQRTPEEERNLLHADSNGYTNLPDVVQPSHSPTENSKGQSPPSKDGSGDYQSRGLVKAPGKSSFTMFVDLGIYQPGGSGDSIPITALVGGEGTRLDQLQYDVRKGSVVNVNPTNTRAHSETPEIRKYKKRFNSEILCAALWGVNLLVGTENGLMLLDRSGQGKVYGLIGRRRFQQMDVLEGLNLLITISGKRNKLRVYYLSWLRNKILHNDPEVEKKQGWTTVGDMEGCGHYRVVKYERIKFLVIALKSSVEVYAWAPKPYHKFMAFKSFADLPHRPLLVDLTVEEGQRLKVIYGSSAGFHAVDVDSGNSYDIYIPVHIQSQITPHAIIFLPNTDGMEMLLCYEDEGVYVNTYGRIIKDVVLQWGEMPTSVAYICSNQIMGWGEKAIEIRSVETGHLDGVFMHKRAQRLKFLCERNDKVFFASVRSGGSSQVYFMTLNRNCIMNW
Serine/threonine-protein kinase pim-2, sequence (Q9P1W9 whole entry): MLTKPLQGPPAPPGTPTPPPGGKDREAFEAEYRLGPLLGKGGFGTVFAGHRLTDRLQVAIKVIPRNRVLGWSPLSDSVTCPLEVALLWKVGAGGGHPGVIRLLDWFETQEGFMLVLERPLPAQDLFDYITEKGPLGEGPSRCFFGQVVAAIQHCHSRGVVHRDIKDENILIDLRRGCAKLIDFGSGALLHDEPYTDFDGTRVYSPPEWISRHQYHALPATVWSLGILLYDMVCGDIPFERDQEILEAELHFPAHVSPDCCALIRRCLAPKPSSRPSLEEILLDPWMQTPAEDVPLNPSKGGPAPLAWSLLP
MAP kinase-activated protein kinase 3, sequence (Q16644 whole entry): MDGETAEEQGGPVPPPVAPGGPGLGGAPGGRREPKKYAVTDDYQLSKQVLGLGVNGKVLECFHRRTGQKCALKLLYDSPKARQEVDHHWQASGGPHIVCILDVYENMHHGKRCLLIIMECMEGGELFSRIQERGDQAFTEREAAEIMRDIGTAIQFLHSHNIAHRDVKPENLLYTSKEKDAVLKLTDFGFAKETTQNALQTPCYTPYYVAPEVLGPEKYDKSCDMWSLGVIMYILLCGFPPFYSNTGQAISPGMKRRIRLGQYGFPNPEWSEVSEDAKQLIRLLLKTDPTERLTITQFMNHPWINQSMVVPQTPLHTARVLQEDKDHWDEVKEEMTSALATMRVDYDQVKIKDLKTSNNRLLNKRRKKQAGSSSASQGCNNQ
Uncharacterized aarF domain-containing protein kinase 5, sequence (Q3MIX3 whole entry, the tested form may be a part): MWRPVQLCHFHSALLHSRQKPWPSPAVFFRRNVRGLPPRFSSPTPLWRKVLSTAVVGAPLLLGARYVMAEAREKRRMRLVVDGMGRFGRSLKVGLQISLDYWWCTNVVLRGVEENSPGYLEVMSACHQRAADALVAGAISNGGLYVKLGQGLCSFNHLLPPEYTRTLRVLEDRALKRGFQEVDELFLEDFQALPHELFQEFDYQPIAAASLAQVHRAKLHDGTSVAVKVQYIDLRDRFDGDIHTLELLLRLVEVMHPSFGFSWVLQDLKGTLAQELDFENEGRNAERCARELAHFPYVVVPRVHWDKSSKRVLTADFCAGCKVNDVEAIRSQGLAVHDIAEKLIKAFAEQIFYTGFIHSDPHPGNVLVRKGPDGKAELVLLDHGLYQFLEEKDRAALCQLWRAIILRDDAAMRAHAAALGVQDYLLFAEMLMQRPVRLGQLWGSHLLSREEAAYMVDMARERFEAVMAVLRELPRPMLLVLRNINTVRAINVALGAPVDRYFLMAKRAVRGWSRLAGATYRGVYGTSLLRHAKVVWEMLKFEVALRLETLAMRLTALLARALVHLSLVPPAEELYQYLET
Serine/threonine-protein kinase Nek7, sequence (Q8TDX7 whole entry): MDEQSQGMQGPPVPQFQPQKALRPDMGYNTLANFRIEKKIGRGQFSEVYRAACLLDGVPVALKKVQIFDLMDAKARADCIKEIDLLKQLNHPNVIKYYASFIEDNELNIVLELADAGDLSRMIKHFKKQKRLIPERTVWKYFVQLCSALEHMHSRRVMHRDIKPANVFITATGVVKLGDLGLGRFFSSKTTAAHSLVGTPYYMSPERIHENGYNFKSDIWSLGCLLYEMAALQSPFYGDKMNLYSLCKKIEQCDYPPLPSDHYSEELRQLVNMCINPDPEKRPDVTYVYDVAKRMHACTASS
Serine/threonine-protein kinase PAK 6, sequence (Q9NQU5 whole entry, the tested form may be a part): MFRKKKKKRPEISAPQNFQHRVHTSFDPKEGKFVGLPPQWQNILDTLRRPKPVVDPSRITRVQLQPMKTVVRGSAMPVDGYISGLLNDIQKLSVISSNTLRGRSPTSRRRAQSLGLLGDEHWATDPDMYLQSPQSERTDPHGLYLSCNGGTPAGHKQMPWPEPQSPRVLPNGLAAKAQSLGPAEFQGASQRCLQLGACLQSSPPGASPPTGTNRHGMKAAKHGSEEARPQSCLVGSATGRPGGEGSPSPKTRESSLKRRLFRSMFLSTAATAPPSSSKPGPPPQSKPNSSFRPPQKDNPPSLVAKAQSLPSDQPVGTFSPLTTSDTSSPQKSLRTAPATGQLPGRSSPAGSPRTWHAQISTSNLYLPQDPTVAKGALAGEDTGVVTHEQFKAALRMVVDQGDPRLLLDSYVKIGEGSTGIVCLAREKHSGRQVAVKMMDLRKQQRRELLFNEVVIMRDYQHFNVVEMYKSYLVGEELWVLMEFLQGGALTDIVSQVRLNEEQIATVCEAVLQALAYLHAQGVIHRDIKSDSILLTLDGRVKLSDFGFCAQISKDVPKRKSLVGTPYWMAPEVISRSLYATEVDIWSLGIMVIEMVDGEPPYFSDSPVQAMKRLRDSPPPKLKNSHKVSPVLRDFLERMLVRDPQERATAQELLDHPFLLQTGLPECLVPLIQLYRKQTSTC

Structure (SMILES) | Kd [1] | Kd (UMP-CMP kinase) | Kd [2] | Kd [3] | Kd (Misshapen-like kinase 1) | Kd [4] | Kd [5] | Kd [6] | Kd [7] | Kd [8]
COc1cc2ncnc(Oc3cccc(NC(=O)Nc4cc(C(C)(C)C(F)(F)F)on4)c3)c2cc1OC [CEP-32496] | > 30 µM (inactive) | > 30 µM (inactive) | > 30 µM (inactive) | > 30 µM (inactive) | > 30 µM (inactive) | > 30 µM (inactive) |  |  |  | 
Cc1cc(Nc2ncc(Cl)c(Nc3ccccc3S(=O)(=O)C(C)C)n2)c(OC(C)C)cc1C1CCNCC1 [CERITINIB] | > 30 µM (inactive) |  | > 30 µM (inactive) | > 30 µM (inactive) | > 30 µM (inactive) | > 30 µM (inactive) | > 30 µM (inactive) | > 30 µM (inactive) | > 30 µM (inactive) | 
CC(C)(C)c1nc(-c2cccc(NS(=O)(=O)c3c(F)cccc3F)c2F)c(-c2ccnc(N)n2)s1 [DABRAFENIB] | > 30 µM (inactive) | > 30 µM (inactive) | > 30 µM (inactive) | > 30 µM (inactive) | > 30 µM (inactive) | > 30 µM (inactive) | > 30 µM (inactive) | > 30 µM (inactive) |  | > 30 µM (inactive)
Cc1cnc(NC(=O)Nc2cc(Br)c(C)cc2OC[C@@H]2CNCCO2)cn1 [RABUSERTIB] | > 30 µM (inactive) |  | > 30 µM (inactive) | > 30 µM (inactive) |  | > 30 µM (inactive) | > 30 µM (inactive) |  | > 30 µM (inactive) | > 30 µM (inactive)
CNC(=O)c1cc(Oc2ccc(NC(=O)Nc3cc(C(C)(C)C)nn3-c3ccc4ncccc4c3)c(F)c2)ccn1 [REBASTINIB] | > 30 µM (inactive) |  | > 30 µM (inactive) | > 30 µM (inactive) | > 30 µM (inactive) | > 30 µM (inactive) |  | > 30 µM (inactive) | > 30 µM (inactive) | 0.002 µM
CO[C@H]1C[C@@H]2CC[C@@H](C)[C@@](O)(O2)C(=O)C(=O)N2CCCC[C@H]2C(=O)O[C@H]([C@H](C)C[C@@H]2CC[C@@H](OC(=O)C(C)(CO)CO)[C@H](OC)C2)CC(=O)[C@H](C)/C=C(\C)[C@@H](O)[C@@H](OC)C(=O)[C@H](C)C[C@H](C)/C=C/C=C/C=C/1C [TEMSIROLIMUS] | > 30 µM (inactive) | > 30 µM (inactive) | > 30 µM (inactive) | > 30 µM (inactive) | > 30 µM (inactive) | > 30 µM (inactive) | > 30 µM (inactive) |  | > 30 µM (inactive) | 
Cc1cc(Nc2ncnc3ccc(NC4=NC(C)(C)CO4)cc23)ccc1Oc1ccn2ncnc2c1 [TUCATINIB] | > 30 µM (inactive) | > 30 µM (inactive) | > 30 µM (inactive) |  | > 30 µM (inactive) | > 30 µM (inactive) |  |  | > 30 µM (inactive) | > 30 µM (inactive)
